Measured values published in patent US20230147129A1, “COMPOUNDS FOR USE IN THE TREATMENT OF SYNUCLEINOPATHIES” (SOM INNOVATION BIOTECH, S.A., priority 2020, published 2023).

Assays:
α-synuclein [1] = target: T1, α-synuclein (Homo sapiens, UniProt P37840); assay: Light scattering of α-synuclein aggregates at end-point (48 h); type: biochemical; settings: 48 h end-point; for Effect on aggregation measured by light scattering at 300 and 340 nm (in words): FIG. 2A and 2B; for Normalized light scattering value at 300 nm: normalised to control = 1, excitation 300 nm; for Normalized light scattering value at 340 nm: normalised to control = 1, excitation 340 nm
Procedure: Total aggregate formation at 48 h was measured by light scattering adding 80 μL of pre-aggregated α-synuclein into a quartz cuvette. Samples were previously re-suspended by carefully vortexing and pipetting, and then excited at 300 and 340 nm and 90° scattering collected between 280 to 360 nm. These measurements were performed in a Cary Eclipse Fluorescence Spectrophotometer (Agilent, Santa Clara, Calif., USA).

α-synuclein [2] = target: T1, α-synuclein; assay: Thioflavin-T assay of α-synuclein aggregation kinetics; type: biochemical; settings: 100 μM compound, FIG. 1A and 1B
Procedure: Lyophilized α-synuclein was dissolved in PBS (phosphate buffer solution) to a final solution of 210 μM and filtered through a Millipore 0.22 μm filter. α-synuclein aggregation was performed in a 96-well plate (non-treated, black plastic), each well containing a Teflon® polyball ⅛″ diameter (Polysciences Europe GmbH, Eppelheim, Germany), 40 μM Thioflavin-T (Th-T), 70 μM α-synuclein, 100 μM of the compounds to be tested and PBS up to a final volume of 150 μL. The plates were fixed into an orbital culture shaker Max-Q 4000 (Thermo Scientific, Waltham, Mass., USA) to keep the incubation at 37° C., 100 rpm. Every, 2 h, the fluorescence intensity was measured using a Victor 3.0 Multilabel Reader (PerkinElmer, Waltham, Mass., USA), by exciting the mixtures with 430-450 nm filter and collecting the emission intensity with 480-510 nm filter. Each measurement was performed in triplicates.
Each plate contained three (3) α-synuclein controls in the absence of any of the tested compounds. The averaged Th-T fluorescence obtained for these wells at the end of the experience was normalized to 1, and the kinetic curves in the different wells re-scaled accordingly. After compiling the fluorescence signals, means and standard error of mean (SEM) were used to fit the aggregation kinetic with equation (1),
wherein k^b and k^a indicate the homogeneous nucleation rate constant and the secondary rate constant, accounting for fibril elongation and secondary nucleation, respectively.
Re-scaled curves were used to compare the controls with the effect of the compounds and to ensure that the controls were reproducible between different experiments.

[3] = test system: primary culture of dopaminergic neurons injured with a mitochondrial toxin (MPP+); assay: Neuroprotection in primary culture of dopaminergic neurons injured with MPP+; type: cell-based, rat; settings: compounds 10 nM to 10 μM, pre-incubated 1 or 4 hours, MPP+ 4 μM for 48 hours, FIG. 16-20
Procedure: The efficacy of 5 compounds was assessed in a primary culture of dopaminergic neurons injured with a mitochondrial toxin (MPP+), which is often used to experimentally mimic the pathology of Parkinson disease (FIG. 16 to 20).
To obtain rat dopaminergic neurons, pregnant female rats (Wistar, Janvier Labs, France) of 15 days of gestation were killed using a deep anesthesia in a CO2 chamber followed by a cervical dislocation. Midbrains obtained from 15-day-old rat embryos were dissected under microscope and placed in ice-cold medium of Leibovitz (L15) containing 2% of Penicillin-Streptomycin (PS) and 1% of bovine serum albumin (BSA). The ventral portion of the mesencephalic flexure, a region of the developing brain rich in dopaminergic neurons, was used for the cell preparations.
The midbrains were dissociated by trypsinization for 20 min at 37° C. (solution at a final concentration of 0.05% trypsin and 0.02% EDTA). The reaction was stopped by adding Dulbecco's modified Eagle's medium (DMEM) containing DNAase I grade II (0.5 mg/mL) and 10% of fetal calf serum (FCS). Cells were then mechanically dissociated by 3 passages through a 10 ml pipette. […] The supernatant was discarded and the cell pellet was re-suspended in a defined culture serum-free medium consisting of Neurobasal (Invitrogen) supplemented with B27 (2%), L-glutamine (2 mM) and 2% of PS solution and 10 ng/ml of Brain-derived neurotrophic factor (BDNF) and 1 ng/mL of Glial-Derived Neurotrophic Factor (GDNF). Viable cells were counted in a Neubauer cytometer using the trypan blue exclusion test.
Half of the medium was changed every 2 days with fresh medium. On 96-wells plates, only 60 wells were used, the first columns and first lines were not used to avoid any edge effect, the empty wells were filled with sterile water.
Test compounds were tested on culture in 96-well plates (n=6 culture wells per condition).
Vehicle: Culture medium (0.1% DMSO).
Pre-incubation: On day 6 of culture, the compounds (from 10 nM to 10 μM) were dissolved in DMSO and then in culture medium, and were pre-incubated with primary dopaminergic neurons for 1 hour or 4 hours before the application of MPP+.
Injury: One or four hours after the application of the test compounds, MPP+ was added to a final concentration of 4 μM, diluted in control medium still in presence of compounds for 48 hours.
48 hours after the intoxication, the cell culture supernatant was removed, and the cells were fixed by a solution of 4% paraformaldehyde in PBS, pH=7.3 for 20 min at room temperature. The cells were washed twice in PBS, and then permeabilized. Non-specific sites were blocked with a solution of PBS containing 0.1% saponin and 1% FCS for 15 min at room temperature.
Immunostaining: TH and α-syn
The cultures were incubated with: • A monoclonal anti-Tyrosine Hydroxylase (TH) antibody produced in mouse at dilution of 1/10000 in PBS containing 1% FCS, 0.1% saponin, for 2 hours at room temperature. • a polyclonal anti-alpha synuclein (α-syn) antibody produced in rabbit at dilution of 1/200 in PBS containing 1% FCS, 0.1% saponin, for 2 hours at room temperature.
For each condition, 20 (for the TH survival and α-syn readouts) pictures representing the whole well area, were automatically taken using ImageXpress® (Molecular Devices) at 10× magnification (20 pictures, for TH and α-syn into TH neurons) using the same acquisition parameters. From images, analyses were directly and automatically performed by Custom Module Editor® (Molecular Devices). The following read-outs were measured: • Analysis of total number of THneurons (TH positive neurons), • total length of neurite network of TH positive neurons (in μm), • α-syn aggregation (overlapping between TH and α-syn staining),
Results are expressed in percentage of control. All values show the mean+/−SEM (standard error of the mean) from 4-6 wells per condition.

| SMILES | Effect on aggregation measured by light scattering at 300 and 340 nm (in words) (α-synuclein [1]) | Normalized light scattering value at 300 nm (α-synuclein [1]) | Normalized light scattering value at 340 nm (α-synuclein [1]) | Inhibition of Th-T fluorescence / fibril formation (in words) (α-synuclein [2]) | Loss of dopaminergic neurons (TH number) after MPP+ (in words) [3] | α-syn aggregation (ratio a-syn area/TH number) triggered by MPP+ (in words) [3] |
| --- | --- | --- | --- | --- | --- | --- |
| C[C@@H](NCCCc1cccc(C(F)(F)F)c1)c1cccc2ccccc12 [Cinacalcet, N-[(1R)-1-(1-naphthyl)ethyl]-3-[3-(trifluoromethyl)phenyl]propan-1-amine] | significant reduction of the absorbance | 0.44 ± 0.17 | 0.48 ± 0.18 |  |  |  |
| Cn1ncc(Cl)c1-c1cc(C(=O)N[C@H](CN)Cc2cccc(F)c2)sc1Cl [Afuresertib, N-[(2S)-1-amino-3-(3-fluorophenyl)propan-2-yl]-5-chloro-4-(4-chloro-1-methyl-1H-pyrazol-5-yl)thiophene-2-carboxamide] | reduced absorbance at both length waves | 0.44 ± 0.08 | 0.62 ± 0.09 | potent inhibitors | partially prevented the loss of dopaminergic neurons | decreased α-syn aggregation |
| N=C(N)NCC1COC2(CCCCC2)O1 (centres unmarked) [Guanadrel, 2-(1,4-dioxaspiro[4.5]decan-2-ylmethyl)guanidine] | reduced absorbance at both length waves | 0.68 ± 0.06 | 0.68 ± 0.06 | more modest inhibition of fibril formation | partially prevented the loss of dopaminergic neurons | decreased α-syn aggregation |
| Cc1ccnc(NS(=O)(=O)c2ccc(N)cc2)n1 [Sulfamerazine, 4-amino-N-(4-methylpyrimidin-2-yl)benzenesulfonamide] | reduced absorbance at both length waves | 0.55 ± 0.10 | 0.78 ± 0.14 | potent inhibitors |  |  |
| O=C(c1ccccc1)N1CCN=C1Nc1c(Cl)cccc1Cl [Benclonidine, [2-(2,6-dichloroanilino)-4,5-dihydroimidazol-1-yl]-phenylmethanone] |  | 0.95 ± 0.07 | 0.98 ± 0.07 | potent inhibitors | partially prevented the loss of dopaminergic neurons | decreased α-syn aggregation |
| N=C(NN=Cc1ccc(Cl)cc1)NN=Cc1ccc(Cl)cc1 [Robenidine, 1,2-bis[(4-chlorophenyl)methylideneamino]guanidine] | significant reduction of the absorbance | 0.31 ± 0.03 | 0.31 ± 0.02 |  |  |  |
| CC(CCc1ccc2c(c1)OCO2)NCC(O)c1ccc(O)c(C(N)=O)c1 (centres unmarked) [Medroxalol, 5-[2-[[3-(1,3-Benzodioxol-5-yl)-1-methylpropyl]amino]-1-hydroxyethyl]-2-hydroxybenzamide] | reduced absorbance at both length waves | 0.72 ± 0.03 | 0.75 ± 0.04 | more modest inhibition of fibril formation |  |  |
| Nc1nc(=O)c2ncn([C@H]3C=C[C@@H](CO)C3)c2[nH]1 [(−)-Carbovir, 2-amino-9-[(1R,4S)-4-(hydroxymethyl)cyclopent-2-en-1-yl]-1H-purin-6-one] | reduced absorbance at both length waves | 0.72 ± 0.08 | 0.77 ± 0.09 | more modest inhibition of fibril formation |  |  |
| CCCOc1ccc2[nH]c(NC(=O)OC)nc2c1 [Oxibendazole, Methyl N-(6-propoxy-1H-benzimidazol-2-yl) carbamate] | significant reduction of the absorbance | 0.13 ± 0.02 | 0.51 ± 0.10 |  |  |  |
| N=C(N)NC(=O)Cc1c(Cl)cccc1Cl [Guanfacine, N-(diaminomethylidene)-2-(2,6-dichlorophenyl)acetamide] | significant reduction of the absorbance | 0.65 ± 0.10 | 0.68 ± 0.10 | more modest inhibition | partially prevented the loss of dopaminergic neurons | decreased α-syn aggregation |
